Measured values published in ChEMBL document CHEMBL1201862, “PubChem BioAssay data set” (2004).
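Results reflect a 48-hour exposure of cells in 96-well plates to compound at five concentrations. GI50 is the concentration that inhibits growth by half.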 Calls of active or inactive are those of the source. No stated cut-off is given here; in the data, active = GI50 up to about 1.1 µM and inactive = higher.

Columns and labels:
Assay in all cases: NCI anticancer screen, dose series, 48 h
RPMI-8226 = tested on: RPMI-8226
SN12C = tested on: SN12C
DU-145 = tested on: DU-145
U-251 = tested on: U-251
OVCAR-8 = tested on: OVCAR-8
HT-29 = tested on: HT-29
HL-60 = tested on: HL-60
NCI-H460 = tested on: NCI-H460
SF-268 = tested on: SF-268
RXF 393 = tested on: RXF 393
TK-10 = tested on: TK-10
HOP-62 = tested on: HOP-62
M14 = tested on: M14
K562 = tested on: K562
PC-3 = tested on: PC-3
SK-MEL-2 = tested on: SK-MEL-2
EKVX = tested on: EKVX
MOLT-4 = tested on: MOLT-4
SF-295 = tested on: SF-295

Structure (SMILES)	GI50 (RPMI-8226)	GI50 (SN12C)	GI50 (DU-145)	GI50 (U-251)	GI50 (OVCAR-8)	GI50 (HT-29)	GI50 (HL-60)	GI50 (NCI-H460)	GI50 (SF-268)	GI50 (RXF 393)	GI50 (TK-10)	GI50 (HOP-62)	GI50 (M14)	GI50 (K562)	GI50 (PC-3)	GI50 (SK-MEL-2)	GI50 (EKVX)	GI50 (MOLT-4)	GI50 (SF-295)
COc1ccc(/C=C2\N=C(SC)N(C)C2=O)cc1	50 µM (inactive)	71.6 µM (inactive)	> 100 µM (inactive)	89.7 µM (inactive)	> 100 µM (inactive)	46.1 µM (inactive)	27.5 µM (inactive)	99.1 µM (inactive)	28.1 µM (inactive)	> 100 µM (inactive)	> 100 µM (inactive)	96.8 µM (inactive)	82.6 µM (inactive)	50.9 µM (inactive)	40.9 µM (inactive)	> 100 µM (inactive)	–	–	–
N#Cc1nc(-c2ccsc2)oc1N	77.4 µM (inactive)	> 100 µM (inactive)	> 100 µM (inactive)	> 100 µM (inactive)	> 100 µM (inactive)	> 100 µM (inactive)	> 100 µM (inactive)	–	> 100 µM (inactive)	> 100 µM (inactive)	> 100 µM (inactive)	> 100 µM (inactive)	> 100 µM (inactive)	> 100 µM (inactive)	> 100 µM (inactive)	> 100 µM (inactive)	> 100 µM (inactive)	> 100 µM (inactive)	–
O=[N+]([O-])c1ccc(N2CCC(CCCC3CCN(c4ccc([N+](=O)[O-])cc4[N+](=O)[O-])CC3)CC2)c([N+](=O)[O-])c1	13.4 µM (inactive)	32.1 µM (inactive)	21.7 µM (inactive)	14.8 µM (inactive)	16.1 µM (inactive)	8.11 µM (inactive)	15.4 µM (inactive)	14.3 µM (inactive)	20 µM (inactive)	15.3 µM (inactive)	16.9 µM (inactive)	15.5 µM (inactive)	13.2 µM (inactive)	22.3 µM (inactive)	15.8 µM (inactive)	16.9 µM (inactive)	15.8 µM (inactive)	23.3 µM (inactive)	17.4 µM (inactive)
COc1ccc(-n2c3c(c4cc(O)ccc42)Cc2ccccc2C3=O)cc1	3.76 µM (inactive)	57.3 µM (inactive)	> 100 µM (inactive)	45.2 µM (inactive)	48 µM (inactive)	53.2 µM (inactive)	> 100 µM (inactive)	16.1 µM (inactive)	26.6 µM (inactive)	< 0.01 µM (active)	58.7 µM (inactive)	42.7 µM (inactive)	38.2 µM (inactive)	31.3 µM (inactive)	2.2 µM (inactive)	65.3 µM (inactive)	–	11.5 µM (inactive)	16.5 µM (inactive)
Cn1c(-c2ccc(/N=N/Nc3ccc(-c4n[nH]c(=S)n4C)cc3)cc2)n[nH]c1=S	2.79 µM (inactive)	> 100 µM (inactive)	12.8 µM (inactive)	13.2 µM (inactive)	4.6 µM (inactive)	> 100 µM (inactive)	4.6 µM (inactive)	–	16.5 µM (inactive)	11.6 µM (inactive)	28.7 µM (inactive)	20.3 µM (inactive)	8.89 µM (inactive)	2.82 µM (inactive)	> 100 µM (inactive)	5.7 µM (inactive)	20.6 µM (inactive)	3.08 µM (inactive)	18.3 µM (inactive)
Clc1cc(-c2ccccc2)nc2ccccc12	23.7 µM (inactive)	41.1 µM (inactive)	40.6 µM (inactive)	35.4 µM (inactive)	59.7 µM (inactive)	32.1 µM (inactive)	22.5 µM (inactive)	35.5 µM (inactive)	44.9 µM (inactive)	31.7 µM (inactive)	34 µM (inactive)	> 100 µM (inactive)	37.6 µM (inactive)	37.8 µM (inactive)	24.8 µM (inactive)	19.1 µM (inactive)	31.9 µM (inactive)	22.1 µM (inactive)	38.4 µM (inactive)
